Test results published in PubChem BioAssay AID1963839 (Molecular Pharmacology Branch, DTP, NCI, 2024).
Values joined by “and” are separate entries in the source; they are usually repeats but may differ in a detail not shown here. Identical values can stand only once.

Test system: 817829-284-R-J1-PDC complex spheroid viability
Assay: Anticancer human tumor 817829-284-R-J1-PDC patient-derived colon adenocarcinoma cell line growth inhibition [POLQ]
Conditions: for viability, T/C: stronger effect = lower value
Experimental: Multicellular complex tumor spheroid response to Polymerase (POL) inhibitors (novobiocin, ART-558, RP6685) in combination with a variety of drugs and investigational agents in selected tumor cell lines
The POL inhibitors (novobiocin, ART-558, and RP6685) were evaluated both individually and in combination with standard of care and investigational anticancer small molecules within a complex spheroid model of solid tumors. . Complex spheroids include a stromal component modeled by human endothelial cells (HUVEC) and fibroblasts modeled by human mesenchymal stem cells (MSCs). The concentration ranges selected for each drug and investigational agent were based upon clinically achievable concentrations if the clinical Cmax of the agent was known.
Compounds. The drugs and investigational agents: novobiocin (NSC847541), ART-558 (NSC835418), RP-6685 (NSC848927), peposertib (NSC802822), ceralasertib (NSC780249), elimusertib (NSC800525), camonsertib (NSC841442), AZD-1390 (NSC803789), olaparib (NSC753686), talazoparib (NSC767125), rucaparib (NSC756644), sotorasib (NSC818433), MRTX-1133 (NSC836407), SN-38 (NSC673596), topotecan (NSC609699), epotoside (NSC141540), doxorubicin (NSC123127), gemcitabine (NSC613327), 5-fluorouracil (NSC19893), paclitaxel (NSC125973), vemurafenib (NSC761431), MSA-2 (NSC828583), SN-011 (NSC837082), adavosertib (NSC754352), prexasertib (NSC758257), carboplatin (NSC241240) and oxaliplatin (NSC266046), were obtained from the National Cancer Institute (NCI) Developmental Therapeutics Program Chemical Repository (21). The FDA-approved anticancer drug set is available from the Developmental Therapeutics Program at https://dtp.cancer.gov/organization/dscb/obtaining/. […] The stock solutions were prepared in dimethyl sulfoxide (DMSO, Sigma-Aldrich, St. Louis, MO, cat. D2650), except for the platinum compounds which were prepared in saline (Quality Biological, Gaithersburg, MD, cat. 114-055-101), at 800-fold the tested concentration and stored at -70 degrees C prior to their use. All drugs and investigational agents were tested over a range starting from a high concentration at or near the clinical Cmax and decreasing in half-log increments. If the clinical Cmax for an agent had not been determined, the highest concentration tested was 10 microM, except for SN-38, which was tested at a high concentration of 1 microM.
Cell Culture. All cells were maintained in an incubator at 37 degrees C and 5% CO2 with 95% humidity. The PDC lines were cultured according to standard operating procedures established by the NCI PDMR (https://pdmr.cancer.gov). Table 3 of the manuscript, lists the cell lines along with the number of the three cell types plated to form the mct-spheroids and media for tumor cell growth. After thawing, all PDC lines, except 997537-175-T-J1-PDC and 415267-285-R-J2-PDC, were cultured in Matrigel-coated flasks prepared with a working solution of 1X Ham's F-12 nutrient mix, without supplementation (Thermo Fisher Scientific, cat. 11765054), 100 U/mL penicillin-streptomycin (Thermo Fisher Scientific, cat. 15140122), and 2.5% Matrigel (Corning Inc., Corning, NY, cat. 354248) for the first three passages. The two PDC lines 997537-175-T-J1-PDC and 415267-285-R-J2-PDC were cultured on uncoated flasks. The 857933-349-R-J2-PDC line was cultured in 6C/Colon 1B media containing advanced DMEM/F-12 (Thermo Fisher Scientific, cat. 12634028), 10 mM HEPES (Thermo Fisher Scientific, cat. 15630080), 1X GlutaMAX supplement (Thermo Fisher Scientific, cat. 35050061), 0.1 mg/mL primocin (InvivoGen, San Diego, CA, cat. ant-pm-2), 10% defined fetal bovine serum, heat inactivated (HyClone Laboratories Inc., Logan, UT, cat. SH30070.03HI), 50% L-WRN conditioned media (ATCC, cat. CRL-3276), 1.25 mM N-Acetyl-L-cysteine (Sigma-Aldrich, cat. A9165), 10 mM nicotinamide (Sigma-Aldrich, cat. N0636), 1X B-27 supplement (Thermo Fisher Scientific, cat. 17504044), 1X N-2 supplement (Thermo Fisher Scientific, cat. […]
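Further: spheroids exposed to compounds for 7 days.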
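Wherever viability, T/C is given: 100% = DMSO vehicle-treated spheroids.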

Compound: CCc1cc2c(N3CCc4c(cc(Cn5ccnc5)cc4-c4cn(C)nc4C(F)(F)F)C3=O)ccnc2c(OC)n1
- viability, T/C (compound 0.0316 µM): 101% and 91.9% and 80.3%
- viability, T/C (compound 0.1 µM): 81% and 77.6% and 71.7%
- viability, T/C (compound 0.316 µM): 88.4% and 77.1% and 66.4%
- viability, T/C (compound 1 µM): 65.8% and 68.8% and 64.9%
- viability, T/C (compound 3.16 µM): 54.2% and 59.5% and 53.1%
- viability, T/C (compound 10 µM): 34.8% and 38% and 33.4%
- IC50 (curve of compound): 3.92 µM and 4.92 µM and 3.55 µM
